{
  "source": "patent US9119409B2",
  "about": "“Water soluble nutritional supplement for ruminants” (priority 2013, dated 2015)",
  "origin": "cited, not measured here",
  "note": "Read-outs that look alike come from different tables or passages of the source.",
  "data": [
    {"molecule": "O=C([O-])[O-].[Ca+2]", "note": "[calcium carbonate]", "values": [
      {"measurement": "bioavailability", "setting": "at a pH greater than 4", "result": "less than 1%"},
      {"measurement": "bioavailability", "setting": "at a pH of 1.5", "result": "around 75%"}
    ]}
  ]
}
